Tests used:
[1] = Estimate of maximal amount of lymphatic absorbed TU; details: 25% of solubility x 120 mg/g x 3.5 g triglyceride/10 h; formulation of 600 mg fat
Text: The maximal amount of lymphatic absorbed TU can be estimated from the solubility of Testosterone Undecanoate in triglyceride and the transported triglyceride (Int. J. Pharm., vol. 34, 175-178, 1986).

[2] = cited from earlier work

## CCCCCCCCCCC(=O)O[C@H]1CC[C@H]2[C@@H]3CCC4=CC(=O)CC[C@]4(C)[C@H]3CC[C@]12C [Testosterone Undecanoate]
[1]
  maximal amount of lymphatic absorbed TU: ~100 mg
[2]
  solubility in triglyceride: 120 mg/g

Reference: patent US20140179655A1, “SOLID ORAL DOSAGE FORM OF TE[…]” (Solural Pharma ApS, priority 2012, published 2014)
